For the assay, the target named is T1, Histone deacetylase (Plasmodium falciparum (isolate 3D7), UniProt Q7K6A1).
T1 sequence (Q7K6A1 whole entry): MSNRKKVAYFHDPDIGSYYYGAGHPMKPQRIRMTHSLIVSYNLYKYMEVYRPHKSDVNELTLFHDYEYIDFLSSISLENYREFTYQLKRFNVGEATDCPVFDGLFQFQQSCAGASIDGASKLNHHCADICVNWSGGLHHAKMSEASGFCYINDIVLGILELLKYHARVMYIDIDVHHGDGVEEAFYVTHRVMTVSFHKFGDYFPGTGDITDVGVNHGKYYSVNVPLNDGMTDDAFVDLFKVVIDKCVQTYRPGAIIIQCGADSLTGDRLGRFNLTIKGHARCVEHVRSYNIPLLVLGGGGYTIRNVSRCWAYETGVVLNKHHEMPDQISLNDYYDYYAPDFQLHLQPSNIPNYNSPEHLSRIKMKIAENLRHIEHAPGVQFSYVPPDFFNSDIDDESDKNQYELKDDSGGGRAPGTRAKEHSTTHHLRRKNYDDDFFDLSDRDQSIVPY
Briefly: pfHDAC-1 Enzyme Assay. To be noted: pH 7.5; 23 °C. As to the method:
Recombinant pfHDAC-1 was assayed with substrate in the presence of test compound. […] The reaction was allowed to proceed at room temperature for 15 hrs in sealed plates to minimize evaporation. […] Fluorescence was monitored after 1 hr at excitation and emission wavelengths of 360 and 460 nm, respectively. Kinetic constants were calculated by non-linear regression fitting of the data to the Michaelis-Menten equation. Kinetic and inhibition values reported are the mean of three determinations +/- standard deviation.

As for `O=C(CCCCCC(=O)NN=Cc1cc(O)ccc1Br)NO` [benzylidenehydrazine derivative, 15], 49 nM corresponded to half-maximal inhibition (IC50). The same measure for `COc1cc(C=NNC(=O)CCCCC(=O)NO)c(Br)cc1O` [benzylidenehydrazine derivative, 23]: 59 nM; for `O=C(CCCCCC(=O)NN=Cc1ccccc1Cl)NO` [benzylidenehydrazine derivative, 18]: 90 nM; for `O=C(CCCCC(=O)NN=Cc1ccc(B(O)O)cc1)NO` [benzylidenehydrazine derivative, 24]: 45 nM. The same measure for `COc1cc(C=NNC(=O)CCCCCC(=O)NO)c(Br)cc1O` [benzylidenehydrazine derivative, 17]: 59 nM.

As to `O=C(CCCCC(=O)NN=Cc1ccc(O)cc1Br)NO` [benzylidenehydrazine derivative, 21], the IC50 (as a rule, the concentration that gives 50% inhibition) was determined as 106 nM. The figure for `O=C(CCCCCC(=O)NN=Cc1ccc(-n2ccnc2)cc1)NO` [benzylidenehydrazine derivative, 19] is 15 nM. The same measure for `O=C(CCCCCC(=O)NN=Cc1cccc(O)c1)NO` [benzylidenehydrazine derivative, 8]: 59 nM.

As for `CN(C)c1ccc(C=NNC(=O)CCCCCC(=O)NO)c(O)c1` [benzylidenehydrazine derivative, 13], the IC50 was 37 nM.

The compound `O=C(CCCCCC(=O)NN=Cc1ccccc1Br)NO` [benzylidenehydrazine derivative, 16] gave an IC50 of 37 nM.

The compound `O=C(CCCCCC(=O)NN=Cc1c(O)ccc2ccccc12)NO` [benzylidenehydrazine derivative, 14] showed an IC50 of 41 nM. The same measure for `O=C1CCc2c(ccc3ccccc23)O1` [1,2-Dihydro-3H-naphtho[2,1-b]pyran-3-one]: more than 10000 nM. The figure for `O=C(CCCCCC(=O)NN=Cc1cccnc1Br)NO` [benzylidenehydrazine derivative, 20] is 36 nM. The figure for `COc1ccc(Br)c(C=NNC(=O)CCCCCC(=O)NO)c1` [benzylidenehydrazine derivative, 12] is 22 nM.

In the case of `O=C(CCCCC(=O)NN=Cc1cc(O)ccc1Br)NO` [benzylidenehydrazine derivative, 22], the midpoint of inhibition, the IC50, lay at 89 nM. The same measure for `O=C(CCCCCCC(=O)NN=Cc1cc(O)ccc1O)NO` [benzylidenehydrazine derivative, 9]: 110 nM. The figure for `O=C(CCCCCCC(=O)NN=Cc1c(O)cc(O)cc1O)NO` [benzylidenehydrazine derivative, 11] is 43 nM; for `O=C(CCCCCC(=O)NN=Cc1cc2c(cc1Br)OCO2)NO` [benzylidenehydrazine derivative, 10] it is 20 nM.

Source of the values: BindingDB's records for doi:10.1021/jm801654y (Harvard Medical School, 2009).
